Each structure is given as a SMILES string. In brackets after ≈: the same amount, converted by molar mass.

One experiment deals with viral HIV protease (Human immunodeficiency virus type 1 group M subtype B, UniProt P04585). The conditions noted are these: cited from earlier work.
The target of experiment [1] is rat liver acyl-CoA synthetase. Particulars: read-out: 50% inhibition of rat liver acyl-CoA synthetase; cited from earlier work.
The test system of a further experiment is Raji cells. Particulars: cited from earlier work.
In experiment [2] the test system is MCF-7 human breast cancer cells. Kind of experiment: Crystal violet cell growth assay. The conditions noted are these: MCF7, MCF-7, 72 hours, read-out: Cr. Violet(IC50). It is filed as cell-based. On the procedure: The crystal violet assay measure cell growth but not cytotoxicity. This assay employs crystal violet staining of fixed cells in 96-well plates with subsequent solubilization and measurement of OD490 on a spectrophotometer. The OD490 corresponds to cell growth per unit time measured. Cells are treated with the compounds of interest or vehicle controls and IC50 for each compound is computed.
To measure the cytotoxicity of specific compounds against cancer cells, 5×10^4 MCF-7 human breast cancer cells, obtained from the American Type Culture Collection are plated per well in 24 well plates in DMEM medium with 10% fetal bovine serum, penicillin, and streptomycin. Following overnight culture at 37° C. and 5% CO2, the compounds to be tested, dissolved in DMSO, are added to the wells in 1 μl volume at the following concentrations: 50, 40, 30, 20, and 10 μg/ml in triplicate. Additional concentrations are tested if required. 1 μl of DMSO is added to triplicate wells are the vehicle control. C75 is run at 10, and 5 μg/ml in triplicate as positive controls.
After 72 hours of incubation, cells are stained with 0.5 ml of Crystal Violet stain (0.5% in 25% methanol) in each well. After 10 minutes, wells are rinsed, air dried, and then solubilized with 0.5 ml 10% sodium dodecylsulfate with shaking for 2 hours.

Experiment [3] has the same test system. As to the kind of experiment: [14C]acetate incorporation into total lipids. It is filed as cell-based. The conditions noted are these: [14C]acetate incorporation into lipids. On the procedure:
This assay measures the incorporation of [^14C]acetate into total lipids and is a measure of fatty acid synthesis pathway activity in vitro. It is utilized to measure inhibition of fatty acid synthesis in vitro.
MCF-7 human breast cancer cells cultured as above, are plated at 5×10^4 cells per well in 24-well plates. […] DMSO is added to triplicate wells for a vehicle control. C75 is run at 5 and 10 μg/ml in triplicate as positive controls. After 4 hours of incubation, 0.25 μCi of [^14C]acetate (10 μl volume) is added to each well.
After 2 hours of additional incubation, medium is aspirated from the wells and 800 μl of chloroform:methanol (2:1) and 700 μl of 4 mM MgCl2 is added to each well. Contents of each well are transferred to 1.5 Eppendorf tubes, and spun at full-speed for 2 minutes in a high-speed Eppendorf Microcentrifuge 5415D. After removal of the aqueous (upper) layer, an additional 700 μl of chloroform:methanol (2:1) and 500 μl of 4 mM MgCl2 are added to each tube and then centrifuged for 1 minutes as above. The aqueous layer is removed with a Pasteur pipette and discarded. An additional 400 μl of chloroform:methanol (2:1) and 200 μl of 4 mM MgCl2 are added to each tube, then centrifuged and aqueous layer is discarded. The lower (organic) phase is transferred into a scintillation vial and dried at 40° C. under N2 gas. Once dried, 3 ml of scintillant (APB #NBC5104) is added and vials are counted for ^14C. The Beckman Scintillation counter calculates the average cpm values for triplicates.
The IC50 for the compounds is defined as the concentration of drug leading to a 50% reduction in [^14C]acetate incorporation into lipids compared to controls. […] The average cpm values are computed by the Beckman scintillation counter (Model LS6500) for each compound concentration. Computation of linear regression, best-fit line, r^2, and 95% confidence intervals are calculated using Prism Version 3.0 (Graph Pad Software).

The subject of experiment [4] is Staphylococcus aureus (ATCC # 29213). Kind of experiment: Broth microdilution MIC. Particulars: Staphylococcus aureus, ATCC29213; Trypticase Soy Broth; read-out: SA/Tsoy(MIC). The experiment is classed as cell-based. On the procedure: (§1) A broth microdilution assay is used to assess the antimicrobial activity of the compounds. […] Microorganisms tested include Staphylococcus aureus (ATCC # 29213), Enterococcus faecalis (ATCC # 29212), Pseudomonas aeruginosa (ATCC # 27853), and Escherichia coli (ATCC # 25922). The assay is performed in two growth media, Mueller Hinton Broth and Trypticase Soy Broth. […] Colonies are suspended in sterile broth so that the turbidity matches the turbidity of a 0.5 McFarland standard. The inoculum is diluted 1:10 in sterile broth (Mueller Hinton or Trypticase soy) and 195 ul is dispensed per well of a 96-well plate. The compounds to be tested, dissolved in DMSO, are added to the wells in 5 ul volume at the following concentrations: 25, 12.5, 6.25, 3.125, 1.56 and 0.78 ug/ml in duplicate. Additional concentrations are tested if required. 5 ul of DMSO added to duplicate wells are the vehicle control. Serial dilutions of positive control compounds, vancomycin (E. faecalis and S. aureus) and tobramycin (E. coli and P. aeruginosa), are included in each run. After 24 hours of incubation at 37° C., plates are read at OD600 on a Molecular Devices SpectraMax Plus Spectrophotometer. Average OD600 values are computed using SOFTmax Pro Software (Molecular Devices) and MIC values are determined by linear regression analysis using Prism version 3.02 (Graph Pad Software, San Diego).
A general note: Dilution methods test growth across graded concentrations, often in twofold steps.

Experiment [5] concerns Pseudomonas aeruginosa (ATCC # 27853). Kind of experiment: Broth microdilution MIC. It is filed as cell-based. On the procedure:
as §1

Turning to `C/C=C/C/C=C/CCC(=O)[C@H]1O[C@H]1C(N)=O` [cerulenin, (2S,3R)-2,3-epoxy-4-oxo-7,10 dodecadienoyl amide], the “concentration for inhibition of viral HIV protease” value on viral HIV protease was 5 mg/mL.

For `CCCC=CCC=CC=CC=NN=NO` [Triacsin C, 1-hydroxy-3-(E, E, E-2′,4′,7′-undecatrienylidine) triazene], the IC50 in experiment [1] was 8.7 µM. For the same molecule, in the experiment on Raji cells, the “concentration causing growth inhibition in Raji cells” value was 1.0 µM.

Consider `C=CCOC1=C(C)C(=O)S[C@]1(C)CCCCCCCC` (racemic), for which, in experiment [2], the IC50 was 15.1 µg/mL (≈ 50.9 µM). For the same molecule, the “14C(IC50)” value in experiment [3] is listed as “Neg”.

Turning to `CCCCCCCC[C@@]1(C)SC(=O)C(C(=O)OC)=C1O` (racemic), the MIC in experiment [4] stood at 23 µg/mL (≈ 76.6 µM). Further, in experiment [5] (Mueller Hinton Broth), the “PSAE/MH(MIC)” value is recorded as “Neg”. The “PSAE/Tsoy(MIC)” value in experiment [5] (Trypticase Soy Broth) is “Neg”.

These data come from patent US7649012B2, “Compounds, pharmaceutical compositions containing same, and methods of use for same” (FASgen, Inc., priority 2002, dated 2010).
